# Data from patent US20260207578A1, “COMPOUND BASED ON SULFUR/OXYGEN SUBSTITUTED GLUTARIMIDE-BASED ISOINDOLINONE SKELETON AND USE THEREOF” (Gluetacs Therapeutics (Shanghai) Co., LTD., priority 2022, published 2026).
# Legend:
# GSPT1 = target: T1, GSPT1 (Homo sapiens, UniProt P15170+Q96SW2); experiment: Western-blot assay, substrate protein in hPBMCs; type: cell-based; conditions: hPBMC cells, 24 hours, tested at 50 nM and 500 nM, table does not say which
# T1 construct: endogenous in cells; host or cells: human PBMCs (Milecell Biotechnologies)
# Experimental: (§1) The effect of the compounds of the present disclosure on the expression of target proteins in cells was detected using conventional Western blot analysis.
# (§2) Human peripheral blood mononuclear cells (hPBMCs) at a density of 1×10^6 cells/mL were thawed according to the PBMC Recovery Protocol (Milecell Biotechnologies Inc, Shanghai).
# (§3) After 24 hours of compounds treatment, cells were harvested and lysed in RIPA protein lysate containing phosphatase inhibitors on ice for 30-60 min, followed by centrifugation. The supernatant was aspirated as the extracted total cell protein. The protein concentration of the supernatant was determined using the conventional BCA (Bicinchoninic Acid) assay. The supernatant was then mixed with 4× SDS sample loading buffer, denatured at 95° C. for 5 minutes, and then subjected to SDS-PAGE electrophoresis on a polyacrylamide gel. Proteins were then transferred to a nitrocellulose (NC) membrane, blocked at room temperature for 1-2 h, and processed for antibody incubation and detection according to the manufacturer's instructions (Cell Signaling Technology).
# (§4) Half-Maximal Degradation Concentration value (the drug concentration required for degrading proteins by 50%, abbreviated as DC50) reads method: comparing the grayscale values of Western blot bands from drug-treated samples with those from blank DMSO-treated controls, and identifying the drug concentration range at which the grayscale value is half that of the DMSO-treated control bands.
# (§5) DC50 values can be calculated using ImageJ software to measure grayscale values of Western blot bands from drug-treated samples. The concentration-response curve is fitted to estimate the drug concentration corresponding to half the grayscale value.
# (§6) Target protein remaining (%) refers to the percentage of target protein remaining in hPBMC cells after treatment with protein degrader compounds.
# (§7) Calculation method for protein remaining (%): Use ImageJ software to measure grayscale values of Western blot bands from drug (protein degrader)-treated samples. The grayscale value of drug-treated bands is divided by that of internal control protein bands, and the resulting quotient is normalized to obtain the relative percentage of remaining target protein after protein degrader treatment.
# (§8) Target protein degradation rate (%)=100%−target protein remaining (%).
# CK1α = target: T2, CK1α (Homo sapiens, UniProt P48729+Q96SW2); experiment: Western-blot assay, substrate protein in hPBMCs; type: cell-based; conditions: hPBMC cells, 24 hours, tested at 50 nM and 500 nM, table does not say which
# T2 construct: endogenous in cells; host or cells: human PBMCs (Milecell Biotechnologies)
# Experimental: as §1, §2, §3, §4, §5, §6, §7, §8
# Wee1 = target: T3, Wee1 (Homo sapiens, UniProt P30291+Q96SW2); experiment: Western-blot assay, substrate protein in hPBMCs; type: cell-based; conditions: hPBMC cells, 24 hours, tested at 50 nM and 500 nM, table does not say which
# T3 construct: endogenous in cells; host or cells: human PBMCs (Milecell Biotechnologies)
# Experimental: as §1, §2, §3, §4, §5, §6, §7, §8
# IKZF2 = target: T4, IKZF2 (Homo sapiens, UniProt Q96SW2+Q9UKS7); experiment: Western-blot assay, substrate protein in hPBMCs; type: cell-based; conditions: hPBMC cells, 24 hours, tested at 50 nM and 500 nM, table does not say which
# T4 construct: endogenous in cells; host or cells: human PBMCs (Milecell Biotechnologies)
# Experimental: as §1, §2, §3, §4, §5, §6, §7, §8
# [1] = target: T5, human Cereblon WT GST-tagged protein (Homo sapiens, UniProt Q96SW2); experiment: CRBN-binding affinity, HTRF (CEREBLON BINDING kit); conditions: displacement of Thalidomide-Re reagent, 3 hours at room temperature
# T5 construct: purchased CISBIO 64BDCRBNPEH
# Experimental: The CEREBLON BINDING kits (specification: 10,000 tests; product number: Catalog #64BDCRBNPEH; CISBIO company) was used to determine the CRBN binding ability of the compounds to be tested through a HTRF method (homogeneous time-resolved fluorescence). The specific methods are as follows: • 1. […] Then, 2.5 μL of human Cereblon WT GST-tagged protein solution was added to each well. Finally, 5 μL of the thoroughly mixed Thalidomide-Re reagent and GST Eu antibody working solution were added to each of the aforementioned wells. […] The blank control wells were sequentially added with 2.5 μL of diluent #9 (1×) solution, 2.5 μL of PROTAC binding buffer, and 5 μL of thoroughly mixed Thalidomide-Re reagent and GST Eu antibody working solution. • 4.
# OD 620 nmcompound is the absorbance value of each well of the compounds to be tested of the present disclosure at an emission wavelength of 620 nm. […] OD 620 nmcontrol is the absorbance value of the blank control well at an emission wavelength of 620 nm. […] OD 620 nmStd0 is the absorbance value of the solvent control well at an emission wavelength of 620 nm.
# T5 sequence (Q96SW2 whole entry): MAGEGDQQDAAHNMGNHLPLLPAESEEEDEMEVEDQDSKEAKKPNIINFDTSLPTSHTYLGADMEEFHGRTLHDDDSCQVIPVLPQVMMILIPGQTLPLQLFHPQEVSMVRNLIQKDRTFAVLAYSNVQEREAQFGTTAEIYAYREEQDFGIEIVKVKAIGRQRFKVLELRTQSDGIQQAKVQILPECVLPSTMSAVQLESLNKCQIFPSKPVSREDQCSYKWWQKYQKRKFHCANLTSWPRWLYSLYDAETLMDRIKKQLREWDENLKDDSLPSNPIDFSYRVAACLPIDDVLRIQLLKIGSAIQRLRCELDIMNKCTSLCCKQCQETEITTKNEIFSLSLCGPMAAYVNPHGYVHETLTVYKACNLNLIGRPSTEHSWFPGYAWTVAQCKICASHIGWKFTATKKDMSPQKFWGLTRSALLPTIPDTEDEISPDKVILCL
# T1 sequence (P15170 whole entry): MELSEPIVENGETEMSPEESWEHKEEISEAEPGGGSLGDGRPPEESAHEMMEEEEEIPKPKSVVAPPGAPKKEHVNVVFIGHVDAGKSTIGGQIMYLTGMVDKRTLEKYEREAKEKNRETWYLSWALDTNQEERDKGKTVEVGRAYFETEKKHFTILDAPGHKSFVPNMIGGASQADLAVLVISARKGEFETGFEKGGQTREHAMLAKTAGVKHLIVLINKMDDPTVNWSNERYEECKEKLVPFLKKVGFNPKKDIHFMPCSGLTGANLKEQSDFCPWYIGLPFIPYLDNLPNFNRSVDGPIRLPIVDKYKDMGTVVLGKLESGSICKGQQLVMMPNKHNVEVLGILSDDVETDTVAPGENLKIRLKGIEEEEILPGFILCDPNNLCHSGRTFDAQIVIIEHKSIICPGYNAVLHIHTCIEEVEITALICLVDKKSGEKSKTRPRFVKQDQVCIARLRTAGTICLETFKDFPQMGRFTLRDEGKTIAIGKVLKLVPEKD
# T1 sequence (Q96SW2 whole entry): as the sequence (Q96SW2 whole entry) above
# T1 sequence (Q16531 whole entry partner): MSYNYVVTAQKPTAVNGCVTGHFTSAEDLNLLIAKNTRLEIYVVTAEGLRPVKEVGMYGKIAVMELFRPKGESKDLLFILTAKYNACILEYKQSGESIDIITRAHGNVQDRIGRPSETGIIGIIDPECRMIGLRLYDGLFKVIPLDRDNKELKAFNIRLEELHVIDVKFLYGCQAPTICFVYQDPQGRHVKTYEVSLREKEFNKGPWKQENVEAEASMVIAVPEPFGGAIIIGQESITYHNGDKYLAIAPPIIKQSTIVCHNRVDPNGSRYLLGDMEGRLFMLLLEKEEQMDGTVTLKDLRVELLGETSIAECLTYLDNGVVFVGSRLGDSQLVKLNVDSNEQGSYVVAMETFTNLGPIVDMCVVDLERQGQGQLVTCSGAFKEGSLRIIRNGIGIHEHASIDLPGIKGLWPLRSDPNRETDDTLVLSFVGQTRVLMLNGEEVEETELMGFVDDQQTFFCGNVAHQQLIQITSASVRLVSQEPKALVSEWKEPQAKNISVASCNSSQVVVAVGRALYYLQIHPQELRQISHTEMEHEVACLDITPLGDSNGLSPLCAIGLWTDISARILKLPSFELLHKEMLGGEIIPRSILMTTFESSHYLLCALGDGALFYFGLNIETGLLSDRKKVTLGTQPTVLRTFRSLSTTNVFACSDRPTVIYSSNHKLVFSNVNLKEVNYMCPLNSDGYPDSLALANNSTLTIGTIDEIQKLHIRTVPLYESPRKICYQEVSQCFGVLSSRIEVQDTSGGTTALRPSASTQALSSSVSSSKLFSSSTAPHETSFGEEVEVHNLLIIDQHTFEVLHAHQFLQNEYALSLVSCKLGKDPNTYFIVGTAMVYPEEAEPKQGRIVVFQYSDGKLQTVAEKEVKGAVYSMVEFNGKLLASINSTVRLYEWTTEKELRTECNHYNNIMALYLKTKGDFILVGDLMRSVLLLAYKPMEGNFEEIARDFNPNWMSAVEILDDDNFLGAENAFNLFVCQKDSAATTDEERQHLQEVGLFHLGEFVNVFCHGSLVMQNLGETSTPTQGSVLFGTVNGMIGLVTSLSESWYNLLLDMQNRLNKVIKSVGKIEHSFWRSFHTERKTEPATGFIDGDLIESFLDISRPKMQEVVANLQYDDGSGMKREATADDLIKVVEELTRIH
# T3 sequence (P30291 whole entry): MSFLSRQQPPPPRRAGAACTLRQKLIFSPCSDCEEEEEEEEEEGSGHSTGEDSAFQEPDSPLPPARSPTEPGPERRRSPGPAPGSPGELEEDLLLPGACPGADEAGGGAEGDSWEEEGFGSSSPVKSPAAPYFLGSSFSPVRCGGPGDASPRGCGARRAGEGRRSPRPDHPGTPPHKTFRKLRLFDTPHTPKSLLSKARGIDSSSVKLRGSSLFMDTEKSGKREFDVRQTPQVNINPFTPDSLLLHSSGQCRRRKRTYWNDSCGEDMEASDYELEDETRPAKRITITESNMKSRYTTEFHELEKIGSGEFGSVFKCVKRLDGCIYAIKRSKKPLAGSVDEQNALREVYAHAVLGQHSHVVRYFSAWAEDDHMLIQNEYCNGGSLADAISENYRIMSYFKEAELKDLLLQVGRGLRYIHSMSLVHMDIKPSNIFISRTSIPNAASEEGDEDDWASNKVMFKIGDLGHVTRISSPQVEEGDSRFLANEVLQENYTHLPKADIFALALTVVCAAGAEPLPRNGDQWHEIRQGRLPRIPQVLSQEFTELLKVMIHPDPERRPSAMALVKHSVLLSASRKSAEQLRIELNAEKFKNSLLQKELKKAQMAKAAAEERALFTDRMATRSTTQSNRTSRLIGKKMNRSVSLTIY
# T3 sequence (Q96SW2 whole entry): as the sequence (Q96SW2 whole entry) above
# T3 sequence (Q16531 whole entry partner): as the sequence (Q16531 whole entry partner) above
# T2 sequence (P48729 whole entry): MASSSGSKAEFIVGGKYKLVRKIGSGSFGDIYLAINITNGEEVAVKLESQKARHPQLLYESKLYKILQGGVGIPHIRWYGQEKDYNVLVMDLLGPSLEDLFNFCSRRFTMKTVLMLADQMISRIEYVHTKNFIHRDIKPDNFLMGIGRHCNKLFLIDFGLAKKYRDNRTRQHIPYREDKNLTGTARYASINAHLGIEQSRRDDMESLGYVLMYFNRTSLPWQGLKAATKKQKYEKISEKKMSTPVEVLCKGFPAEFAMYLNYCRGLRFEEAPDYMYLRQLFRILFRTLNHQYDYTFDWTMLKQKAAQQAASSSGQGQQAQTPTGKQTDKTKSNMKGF
# T2 sequence (Q96SW2 whole entry): as the sequence (Q96SW2 whole entry) above
# T2 sequence (Q16531 whole entry partner): as the sequence (Q16531 whole entry partner) above
# T4 sequence (Q9UKS7 whole entry): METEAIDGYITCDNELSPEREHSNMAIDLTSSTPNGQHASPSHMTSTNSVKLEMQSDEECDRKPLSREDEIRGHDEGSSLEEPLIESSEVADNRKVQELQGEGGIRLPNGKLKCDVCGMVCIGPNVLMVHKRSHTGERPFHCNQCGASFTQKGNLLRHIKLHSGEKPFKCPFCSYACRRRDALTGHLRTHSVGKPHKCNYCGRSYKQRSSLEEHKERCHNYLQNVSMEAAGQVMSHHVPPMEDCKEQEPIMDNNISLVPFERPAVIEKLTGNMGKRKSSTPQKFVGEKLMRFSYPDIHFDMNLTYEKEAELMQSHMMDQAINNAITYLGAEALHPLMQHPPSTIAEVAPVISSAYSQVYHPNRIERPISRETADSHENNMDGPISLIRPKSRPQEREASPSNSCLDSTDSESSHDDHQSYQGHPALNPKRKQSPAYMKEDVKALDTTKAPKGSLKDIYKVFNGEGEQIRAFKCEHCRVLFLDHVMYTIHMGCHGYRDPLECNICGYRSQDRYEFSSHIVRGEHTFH
# T4 sequence (Q96SW2 whole entry): as the sequence (Q96SW2 whole entry) above
# T4 sequence (Q16531 whole entry partner): as the sequence (Q16531 whole entry partner) above
IC50 [1],Compound,substrate protein remaining % (GSPT1),substrate protein remaining % (CK1α),substrate protein remaining % (Wee1),substrate protein remaining % (IKZF2)
1000 to 1900 nM,"CC1(C)CCC(CN2CCCC(Sc3ccc4c(c3)CN(C3CCC(=O)NC3=O)C4=O)CC2)=C(c2ccc(Cl)cc2)C1 (stereo not shown) [GT-06641, 3-(5-((1-((4′-chloro-5,5-dimethyl-3,4,5,6-tetrahydro-[1,1′-biphenyl]-2-yl)methyl)azepan-4-yl)thio)-1-oxoisoindolin-2-yl)piperidine-2,6-dione]",–,–,–,A (0%≤ substrate protein remaining % ≤80%)
< 500 nM,"O=C1CCC(N2Cc3cc(OC4CC5CN(Cc6ccccc6-c6ccc(Cl)cc6)CC5C4)ccc3C2=O)C(=O)N1 (stereo not shown) [GT-06953, 3-(5-((2-((4′-chloro-[1,1′-biphenyl]-2-yl)methyl)octahydrocyclopenta [c]pyrrol-5-yl)oxy)-1-oxoisoindolin-2-yl)piperidine-2,6-dione]",–,A (0%≤ substrate protein remaining % ≤80%),A (0%≤ substrate protein remaining % ≤80%),–
500 to 1000 nM,"CC1(C)CCC(C(=O)N2CCC3(CC2)CC(Oc2ccc4c(c2)CN(C2CCC(=O)NC2=O)C4=O)C3)=C(c2ccc(Cl)cc2)C1 (stereo not shown) [GT-07020, 3-(5-((7-(4′-chloro-5,5-dimethyl-3,4,5,6-tetrahydro-[1,1′-biphenyl]-2-carbonyl)-7-azaspiro[3.5]nonan-2-yl)oxy)-1-oxoisoindolin-2-yl)piperidine-2,6-dione]",A (0%≤ substrate protein remaining % ≤80%),–,A (0%≤ substrate protein remaining % ≤80%),–
500 to 1000 nM,"O=C1CCC(N2Cc3cc(OC4CN(CC5=C(c6ccc(Cl)cc6)CCC(F)(F)C5)C4)ccc3C2=O)C(=O)N1 (stereo not shown) [GT-06563, 3-(5-((1-((4′-chloro-4,4-difluoro-3,4,5,6-tetrahydro-[1,1′-biphenyl]-2-yl)methyl)azetidin-3-yl)oxy)-1-oxoisoindolin-2-yl)piperidine-2,6-dione]",–,–,A (0%≤ substrate protein remaining % ≤80%),–
1000 to 1900 nM,"O=C1CCC(N2Cc3cc(SC4CCCNCC4)ccc3C2=O)C(=O)N1 (stereo not shown) [GT-06995, 3-(5-(azepan-4-ylthio)-1-oxoisoindolin-2-yl)piperidine-2,6-dione]",–,A (0%≤ substrate protein remaining % ≤80%),–,–
500 to 1000 nM,"CC1(C)CCC(C(=O)N2CCC(Sc3ccc4c(c3)CN(C3CCC(=O)NC3=O)C4=O)CC2)=C(c2ccc(Cl)cc2)C1 (stereo not shown) [GT-06140, 3-(5-((1-(4′-chloro-5,5-dimethyl-3,4,5,6-tetrahydro-[1,1′-biphenyl]-2-carbonyl)piperidin-4-yl)thio)-1-oxoisoindolin-2-yl)piperidine-2,6-dione]",–,–,A (0%≤ substrate protein remaining % ≤80%),–
< 500 nM,"O=C1CCC(N2Cc3cc(OC4CCN(C(=O)c5ccccc5-c5ccc(Cl)cc5)C4)ccc3C2=O)C(=O)N1 (stereo not shown) [GT-06818, 3-(5-((1-(4′-chloro-[1,1′-biphenyl]-2-carbonyl)pyrrolidin-3-yl)oxy)-1-oxoisoindolin-2-yl)piperidine-2,6-dione]",A (0%≤ substrate protein remaining % ≤80%),A (0%≤ substrate protein remaining % ≤80%),A (0%≤ substrate protein remaining % ≤80%),–
500 to 1000 nM,"O=C1CCC(N2Cc3cc(OC4CN(Cc5ccc(-c6ccc(Cl)cc6)cc5)C4)ccc3C2=O)C(=O)N1 (stereo not shown) [GT-06230, 3-(5-((1-((4′-chloro-[1,1′-biphenyl]-4-yl)methyl)azetidin-3-yl)oxy)-1-oxoisoindolin-2-yl)piperidine-2,6-dione]",A (0%≤ substrate protein remaining % ≤80%),A (0%≤ substrate protein remaining % ≤80%),A (0%≤ substrate protein remaining % ≤80%),–

# Further lines, the compound ahead of its results:
Compound,IC50 [1],substrate protein remaining % (GSPT1),substrate protein remaining % (CK1α),substrate protein remaining % (Wee1),substrate protein remaining % (IKZF2)
"O=C1CCC(N2Cc3cc(OC4CN(Cc5cccc(-c6ccc(Cl)cc6)c5)C4)ccc3C2=O)C(=O)N1 (stereo not shown) [GT-06227, 3-(5-((1-((4′-chloro-[1,1′-biphenyl]-3-yl)methyl)azetidin-3-yl)oxy)-1-oxoisoindolin-2-yl)piperidine-2,6-dione]",–,A (0%≤ substrate protein remaining % ≤80%),A (0%≤ substrate protein remaining % ≤80%),A (0%≤ substrate protein remaining % ≤80%),–
"COC1(C)CCC(c2ccc(Cl)cc2)=C(CN2CC(Oc3ccc4c(c3)CN(C3CCC(=O)NC3=O)C4=O)C2)C1 (stereo not shown) [GT-07065, 3-(5-((1-((4′-chloro-4-methoxy-4-methyl-3,4,5,6-tetrahydro-[1,1′-biphenyl]-2-yl)methyl)azetidin-3-yl)oxy)-1-oxoisoindolin-2-yl)piperidine-2,6-dione]",–,–,A (0%≤ substrate protein remaining % ≤80%),–,–
"CC1(C)CCC(CN2CCC(Oc3ccc4c(c3)CN(C3CCC(=O)NC3=O)C4=O)CC2)=C(c2ccc(Cl)cc2)C1 (stereo not shown) [GT-07061, 3-(5-((1-((4′-chloro-5,5-dimethyl-3,4,5,6-tetrahydro-[1,1′-biphenyl]-2-yl)methyl)piperidin-4-yl)oxy)-1-oxoisoindolin-2-yl)piperidine-2,6-dione]",–,–,A (0%≤ substrate protein remaining % ≤80%),–,–
"O=C1CCC(N2Cc3cc(SC4CN(C(c5ccccc5)c5ccccc5)C4)ccc3C2=O)C(=O)N1 (stereo not shown) [GT-06138, 3-(5-((1-benzhydrylazetidin-3-yl)thio)-1-oxoisoindolin-2-yl)piperidine-2,6-dione]",500 to 1000 nM,A (0%≤ substrate protein remaining % ≤80%),–,A (0%≤ substrate protein remaining % ≤80%),–
"O=C1CCC(N2Cc3cc(OC4CN(C(c5ccc(F)cc5)c5ccc(F)cc5)C4)ccc3C2=O)C(=O)N1 (stereo not shown) [GT-06519, 3-(5-((1-(bis(4-fluorophenyl)methyl)azetidin-3-yl)oxy)-1-oxoisoindolin-2-yl)piperidine-2,6-dione]",500 to 1000 nM,–,A (0%≤ substrate protein remaining % ≤80%),–,–
"COC1(C)CCC(c2ccc(Cl)cc2)=C(CN2CC(Sc3ccc4c(c3)CN(C3CCC(=O)NC3=O)C4=O)C2)C1 (stereo not shown) [GT-07064, 3-(5-((1-((4′-chloro-4-methoxy-4-methyl-3,4,5,6-tetrahydro-[1,1′-biphenyl]-2-yl)methyl)azetidin-3-yl)thio)-1-oxoisoindolin-2-yl)piperidine-2,6-dione]",–,–,A (0%≤ substrate protein remaining % ≤80%),–,–
CC1(C)CCC(CN2CC(Oc3cccc4c3C(=O)N(C3CCC(=O)NC3=O)C4)C2)=C(c2ccc(Cl)cc2)C1 (stereo not shown) [GT-07063],–,–,A (0%≤ substrate protein remaining % ≤80%),–,–
"O=C1CCC(N2Cc3cc(OC4CC5(CCNCC5)C4)ccc3C2=O)C(=O)N1 (stereo not shown) [GT-07005, 3-(5-((7-azaspiro[3.5]nonan-2-yl)oxy)-1-oxoisoindolin-2-yl)piperidine-2,6-dione]",1000 to 1900 nM,–,–,–,A (0%≤ substrate protein remaining % ≤80%)
"CC1(C)CCC(CN2CCC(Oc3ccc4c(c3)CN(C3CCC(=O)NC3=O)C4=O)CC2)=C(c2ccc(F)cc2)C1 (stereo not shown) [GT-07062, 3-(5-((1-((4′-fluoro-5,5-dimethyl-3,4,5,6-tetrahydro-[1,1′-biphenyl]-2-yl)methyl)piperidin-4-yl)oxy)-1-oxoisoindolin-2-yl)piperidine-2,6-dione]",–,–,A (0%≤ substrate protein remaining % ≤80%),–,–
"O=C1CCC(N2Cc3cc(OC4CCN(Cc5cccc(-c6ccc(Cl)cc6)c5)CC4)ccc3C2=O)C(=O)N1 (stereo not shown) [GT-06228, 3-(5-((1-((4′-chloro-[1,1′-biphenyl]-3-yl)methyl)piperidin-4-yl)oxy)-1-oxoisoindolin-2-yl)piperidine-2,6-dione]",–,A (0%≤ substrate protein remaining % ≤80%),A (0%≤ substrate protein remaining % ≤80%),A (0%≤ substrate protein remaining % ≤80%),–
